Test results reported in paper PMC7442133, “Reduced treatment frequencies with bumped kinase inhibitor 1369 are effective against porcine cystoisosporosis” (International Journal for Parasitology: Drugs and Drug …, 2020).

Assays:
C. suis merozoites = assay: Merozoite replication (growth) inhibition in infected IPEC-1 cultures, free merozoites counted 9 dpi; type: cell-based, Cystoisospora suis; conditions: 400 nM once at 2 dpi; vs DMSO-only and no-treatment controls
Protocol: The laboratory strain C. suis Wien I ([Joachim and Mundt, 2011]), was maintained by passage in suckling piglets every 3–6 months and infectivity in vivo was assessed regularly at the Institute of Parasitology, University of Veterinary Medicine, Vienna. Oocysts were purified from collected feces, brought to sporulation and stored as described elsewhere ([Worliczek et al., 2013]). For in vitro studies, sporozoites were excysted ([Worliczek et al., 2013]), enumerated with a hemocytometer and used immediately for infection of semi-permanent intestinal porcine epithelial cells (IPEC-1). For in vivo studies, sporulated oocysts were washed with tap water and enumerated prior to infection of piglets.
IPEC-1 cells were maintained in culture medium at 37 °C and 5% CO2 (DHEM/HAM12 supplemented with 5% fetal calf serum and penicillin/streptomycin; Gibco via Thermo Fisher, Vienna, Austria). Cells (4 × 10^4) were used to seed 24-well plates and grown to confluence. All BKI compounds were stored as 20 mM stock solutions in 100% dimethyl sulfoxide (DMSO) at −20 °C. Cell viability in the presence of DMSO and BKIs was determined by colorimetric cell proliferation (WST-1) assays ([Shrestha et al., 2019]). In addition IPEC-1 cells were infected with serial dilutions of C. suis sporozoites, obtained after excystation to evaluate the growth curves of merozoites during 5–9 days of cultivation. To determine the effect of BKI 1369 on parasite replication, sporozoites (5 × 10^2) were added to each well one day after seeding of host cells and incubated with different concentrations of BKI 1369 at 40 °C for various time periods or a DMSO control, in triplicate.
In order to test whether BKI 1369 affects initial host cell invasion by C. suis, freshly excysted sporozoites were pre-incubated with BKI 1369 or DMSO for 6 h at 37 °C. Subsequently, sporozoites were washed with medium and used for infection of cell monolayers (5 × 10^2/well), in triplicate. Readout for both growth (merozoite replication) and invasion-inhibition experiments was microscopical evaluation by counting free merozoites 9 days post-infection (dpi) from culture supernatants. Supernatants were collected and free merozoites were counted in pooled samples at 9 dpi from quadruplicate wells in C-Chip disposable hemocytometers (NanoEnTek/Roth Lactan, Graz, Austria). All assays included DMSO and no-treatment controls in quadruplicate.
Statistical calculations for in vivo trials were performed with RStudio version 1.1.453 (RStudio Team, 2018), descriptive statistics with Microsoft Excel 2010 (Microsoft Inc., Vienna, Austria) and GraphPad Prism version 5.04 for Windows (GraphPad Software, San Diego, California USA). Differences in clinical and parasitological parameters between groups were analyzed with ANOVA in the case of normal distribution and variance homogeneity of the data, or a Kruskal-Wallis rank sum test if this was not the case. In the event of significance for the omnibus tests, parametric or non-parametric post-hoc tests for multiple comparisons were performed (according to Tukey and Conover, respectively), with P-value adjustment after Bonferroni. In vitro assays were evaluated by t-tests with significance reported at P < 0.05. For testing of efficacy in vitro, the percentage of growth/invasion inhibition was calculated as follows: % inhibition = (1−No. of merozoites counted at 9 dpi in BKI 1369 treated culture /No. of merozoites counted at 9 dpi in DMSO-only treated culture)x100

[1] = Fecal drug kinetics: BKI concentrations in pooled feces by LC-MS/MS; type: in vivo, piglets
Protocol: Additionally, to determine exposure to BKI 1369 and its metabolites, BKI 1318 and BKI 1817, pooled fecal samples per group were collected before treatment (−24 h), 2, 24 and 48 h after treatment and at the end of the study (SD 29; experiment I). Approximately 1 g of feces was soaked overnight in 3 ml phosphate buffered saline (PBS, pH 7.4). The following day, 12 ml of acetonitrile containing 100 μM propanolol as an internal standard was added and the mixture was thoroughly vortexed and centrifuged at 1000×g for 30 min. Clear supernatant was then transferred to Eppendorf tubes and concentrated in a miVac® Duo Concentrator (SP Scientific, Pennsylvania, USA) at 35 °C. Control/blank samples spiked with known amounts of target analyte were processed in tandem to provide a standard curve. The concentrated samples were shipped to the University of Washington and were stored at −20 °C until analysis by liquid chromatography-tandem mass spectrometry (LC-MS/MS) to determine fecal pharmacokinetics. All LC-MS/MS analyses were carried out on a Waters Acquity UPLC coupled with a Xevo TQS Micro and analyzed using MassLynx software (Waters Corporation, Milford, MA, USA). Extraction and LC-MS/MS conditions are described in detail in the Supplementary File S1.
Tissue and feces from vehicle control treated piglets were used as blanks or standards. Calibration curves for BKI 1369, BKI 1318, and BKI 1817 were prepared by adding 2 μL BKI in dimethylsulfoxide (DMSO) to 18 μL tissue or feces controls to generate nominal concentrations of 0.004, 0.008, 0.02, 0.04, 0.08, 0.2, 0.4, 0.8, 2, 5, 10, and 20 μM. Calibration curves were generated separately for each tissue type and feces.
5 μL of tissue homogenate curves and samples were added to tubes that contained 95 μL of 80:20 acetonitrile: water. As an internal standard, propranolol was added to each sample to a final concentration of 20 nM. Samples were dried to completion using a miVac Duo Concentrator (SP Scientific, Pennsylvania, USA) at 35 °C. Sample processing for feces was similar but utilized a slightly different process to concentrate the sample as explained in the methods. Dried Samples were sealed and shipped to the University of Washington for LC-MS/MS analysis.

- Concentration in pooled fecal samples ([1]; Group A (20 mg BKI 1369/kg BW; 0 dpi), SD 2, −24 h (before treatment)): 0.0 µM
- Concentration in pooled fecal samples ([1]; Group A (20 mg BKI 1369/kg BW; 0 dpi), SD 3, 2 h post first-dose): 0.0 µM
- Concentration in pooled fecal samples ([1]; Group A (20 mg BKI 1369/kg BW; 0 dpi), SD 4, 24 h post first-dose): 54.0 µM
- Concentration in pooled fecal samples ([1]; Group A (20 mg BKI 1369/kg BW; 0 dpi), SD 5, 48 h post first-dose): 60.8 µM
- Concentration in pooled fecal samples ([1]; Group A (20 mg BKI 1369/kg BW; 0 dpi), SD 29, 624 h post first-dose): 0.0 µM
- Cmax ([1]; Group A: single treatment 20 mg BKI 1369/kg on SD 3, pooled feces): 60.8 µM
- Fecal Tmax ([1]; Group A: single treatment 20 mg BKI 1369/kg on SD 3, pooled feces, post dose): 48 h
- Concentration in pooled fecal samples ([1]; Group B (20 mg BKI 1369/kg BW; 2 dpi), SD 4, −24 h (before treatment)): 0.0 µM
- Concentration in pooled fecal samples ([1]; Group B (20 mg BKI 1369/kg BW; 2 dpi), SD 5, 2 h post first-dose): 0.0 µM
- Concentration in pooled fecal samples ([1]; Group B (20 mg BKI 1369/kg BW; 2 dpi), SD 6, 24 h post first-dose): 0.8 µM
- Concentration in pooled fecal samples ([1]; Group B (20 mg BKI 1369/kg BW; 2 dpi), SD 7, 48 h post first-dose): 53.5 µM
- Concentration in pooled fecal samples ([1]; Group B (20 mg BKI 1369/kg BW; 2 dpi), SD 29, 576 h post first-dose): 0.0 µM
- Fecal Tmax ([1]; Group B: single treatment 20 mg BKI 1369/kg on SD 5, pooled feces, post-dose): 48 h
- Concentration in pooled fecal samples ([1]; Group C (20 mg BKI 1369/kg BW; 2 and 4 dpi), SD 4, −24 h (before treatment)): 0.0 µM
- Concentration in pooled fecal samples ([1]; Group C (20 mg BKI 1369/kg BW; 2 and 4 dpi), SD 5, 2 h post first-dose): 0.0 µM
- Concentration in pooled fecal samples ([1]; Group C (20 mg BKI 1369/kg BW; 2 and 4 dpi), SD 6, 24 h post first-dose): 130.0 µM
- Concentration in pooled fecal samples ([1]; Group C (20 mg BKI 1369/kg BW; 2 and 4 dpi), SD 7, 48/2 h post 2nd dose): 280.8 µM
- Concentration in pooled fecal samples ([1]; Group C (20 mg BKI 1369/kg BW; 2 and 4 dpi), SD 8, 72/24 h post 2nd dose): 331.6 µM
- Concentration in pooled fecal samples ([1]; Group C (20 mg BKI 1369/kg BW; 2 and 4 dpi), SD 9, 96/48 h post 2nd dose): 537.0 µM
- Cmax ([1]; Group C: 20 mg BKI 1369/kg on SD 5 and SD 7, pooled feces): 537 µM
- Fecal Tmax ([1]; Group C: 20 mg BKI 1369/kg on SD 5 and SD 7, pooled feces, post first-dose): 96 h
- Excretion via the feces (in words) ([1]; after oral BKI 1369, piglets): major metabolite excreted in the feces
Compound: CN1CCC(Cn2nc(-c3ccc4nc(O)ccc4c3)c3c(N)ncnc32)CC1 [BKI 1817]
- Decrease of total merozoite counts (C. suis merozoites): 69.6%
